In assay [1] the test system is patient positive for anti-NR1 NMDAR antibodies. Description: Positive and Negative Syndrome Scale (PANSS), D-serine clinical trial. The class given is in vivo, human. The settings on record: for PANSS Negative: week 0 score 18; for PANSS Positive: week 0 score 24; for PANSS General: week 0 score 55; for PANSS Total: week 0 score 97. The source says: Out of the seventeen patients that entered the study, the serum of one patient was strongly positive at both serum sample dilutions for the presence of both IgG and IgM classes of anti-NR1 NMDAR antibodies. The patient was a single person having a diagnosis of schizophrenia according to DSM-IV-R criteria (American Psychiatric Association, 2000 Diagnostic and Statistical Manual of Mental Disorders-(DSM-IV-TR), 4th edition. American Psychiatric Association Washington D.C. (Text Revision)). There was no history of mental disorder in the patient's family. The patient had completed post-high school studies and had worked as a secretary. After a period of continuous headaches, for which no organic basis had been found, they had abruptly developed an acute psychosis characterized by grandiose and paranoid delusions, mystical thinking, […] affect and agitation, They had been hospitalized in a psychiatric hospital and underwent treatment with antipsychotic drugs and electroconvulsive therapy with only partial response. The patient had never returned to their previous functional and except for short attempts at living in the community, has been hospitalized ever since. They have been refractory to treatment with various classes of antipsychotic drugs, was not diagnosed with any medical or neurological disorder and was maintained on sulpiride 50 mg/day, citalopram 40 mg/day, lorazepam 1 mg/day and promethazine 50 mg/day. […] DSR is a naturally occurring amino acid that acts in vivo as an obligatory co-agonist at the glycine modulatory site associated with NMDAR. […] Both acute and chronic administration of 1-2 g DSR in humans is known to result in ≥100 times increases in DSR serum levels (Kantrowitz et al., 2010, Schizophr Res121:125-30; Heresco-Levy et al., 2005, Biol Psychiatry 57:577-85). The trial consisted of two periods, starting with a 2 week lead-in/stabilization period (-2-0) following which the patient was entered in the second period of the study which consisted of a 6 week (0-6), open-label, fixed dose therapy phase. During this phase, the patient received adjuvant treatment with DSR, whose dose was increased from 1500 mg/day (week 1) to 2000 mg/day (weeks 2 and 3) to 3000 mg/day (weeks 4 and 5) and to 4000 mg/day (week 6). The doses of the ongoing medication received by the patient remained fixed throughout the study and no changes in medication were performed. The assessment procedures used in the study included clinical and neurocognitive examinations. Motor and psychiatric symptoms as well as side-effects were rated biweekly throughout the study. The following instruments were used: 1) Positive and Negative Syndrome Scale (PANSS) (Kay et al., 1987, Positive and Negative Syndrome Scale (PANSS) rating manual. San Rafael California: Social and Behavioral Sciences Documents); 2) Quality of Life Scale (QLS) (Wilkinson et al., 2000, Self-report quality of life measure for people with schizophrenia: the SQLS. Br J Psychiatry 177:42-6); 3) Abnormal Involuntary Movement Scale (AIMS) (Guy, 1976, ECDEU Assessment Manual for Psychopharmacology-Revised. Rockville, Md.: US Dept. of Health, Education and Welfare); 4) Simpson Angus Scale for Extrapyramidal Symptoms (SAS) (Simpson and Angus, 1970, Acta Psychiatr Scand Suppl. 212:11-9); and 5) Udvalg for […] Undersogelser (UKU) Side Effect Rating Scale (Lingjaerde, et al., 1987 Acta Psychiatr Scand Suppl 334:1-100). In conjunction with UKU ratings, patient's vital signs and body weight were monitored throughout the study.

Assay [2] shares this test system. Description: Simpson Angus Scale for Extrapyramidal Symptoms (SAS), D-serine clinical trial. The format is in vivo, human. The settings on record: week 0 score 5. From the text: Out of the seventeen patients that entered the study, the serum of one patient was strongly positive at both serum sample dilutions for the presence of both IgG and IgM classes of anti-NR1 NMDAR antibodies. The patient was a single person having a diagnosis of schizophrenia according to DSM-IV-R criteria (American Psychiatric Association, 2000 Diagnostic and Statistical Manual of Mental Disorders-(DSM-IV-TR), 4th edition. American Psychiatric Association Washington D.C. (Text Revision)). There was no history of mental disorder in the patient's family. The patient had completed post-high school studies and had worked as a secretary. After a period of continuous headaches, for which no organic basis had been found, they had abruptly developed an acute psychosis characterized by grandiose and paranoid delusions, mystical thinking, […] affect and agitation, They had been hospitalized in a psychiatric hospital and underwent treatment with antipsychotic drugs and electroconvulsive therapy with only partial response. The patient had never returned to their previous functional and except for short attempts at living in the community, has been hospitalized ever since. They have been refractory to treatment with various classes of antipsychotic drugs, was not diagnosed with any medical or neurological disorder and was maintained on sulpiride 50 mg/day, citalopram 40 mg/day, lorazepam 1 mg/day and promethazine 50 mg/day. […] DSR is a naturally occurring amino acid that acts in vivo as an obligatory co-agonist at the glycine modulatory site associated with NMDAR. […] Both acute and chronic administration of 1-2 g DSR in humans is known to result in ≥100 times increases in DSR serum levels (Kantrowitz et al., 2010, Schizophr Res121:125-30; Heresco-Levy et al., 2005, Biol Psychiatry 57:577-85). […] In conjunction with UKU ratings, patient's vital signs and body weight were monitored throughout the study.

This is an account of results in patent US11213522B2, “Autoimmune-induced glutamatergic receptor dysfunction methods and treatments” (SARAH HERZOG MEMORIAL HOSPITAL EZRAT NASHIM ASSOCIATION, priority 2013, dated 2022).

`N[C@H](CO)C(=O)O` [D-serine]: the “PANSS positive, negative and general psychopathology symptom domains” value in assay [1] (during treatment with DSR) is listed as “improved”. In addition, the “Total PANSS score lower by the end of the study” value in assay [1] (end of study vs baseline total score of 97) was 17%. Further, the “PANSS Negative” value in assay [1] (study week 2) was determined as 19; in assay [1] (study week 4), 17; in assay [1] (study week 6), 16. In addition, the “PANSS Positive” value stood at 21 in assay [1] (study week 2), 21 in assay [1] (study week 4) and 19 in assay [1] (study week 6). Moreover, the entries for the “PANSS General” value in assay [1] (study week 2), in assay [1] (study week 4) and in assay [1] (study week 6) were 54, 51 and 45, respectively. The “PANSS Total” value came out at 96 in assay [1] (study week 2), 89 in assay [1] (study week 4) and 80 in assay [1] (study week 6). Moreover, the SAS stood at 4 in assay [2] (study week 2), 4 in assay [2] (study week 4) and 3 in assay [2] (study week 6).
